One series concerns P. falciparum NF54. In words: In vitro [3H]hypoxanthine incorporation assay, P. falciparum NF54. Conditions: for IC50: 16 h + 8 h incubation, read-out: IC50 (mean ± SD) for P. falciparum NF54 (n = 3). It counts as cell-based, Plasmodium falciparum. The protocol:
Human erythrocytes served as the host cells. In vitro antimalarial activity was measured using the [^3H]hypoxanthine incorporation assay ([36]) with strain NF54 of P. falciparum (obtained from Hoffmann-LaRoche Ltd.). The compounds were dissolved in dimethyl sulfoxide (DMSO) at a concentration of 10 mM, diluted in hypoxanthine-free culture medium, and titrated in duplicate over a 64-fold range in 96-well plates. […] The parasites were harvested onto glass fiber filters, and radioactivity was measured using a BetaPlate liquid scintillation counter (Wallac, Zurich, Switzerland). All assays were repeated at least three times. The results were recorded and expressed as a percentage of the untreated controls. […] In addition, for the PK-PD analysis of KAE609, an IC99 value was determined by transforming the data from a scintillation counter (Anscombe transformation) to account for Poissonian measurement error. […] Each of the three replicates was performed on a distinct 96-well plate. This has been accounted for in the fitting procedure by means of a Bayesian hierarchical model. The software used for parameter inference was Stan ([37]).

Series [1] is described as follows: RBC to plasma partitioning. It is filed as in vitro ADME. Conditions: mean from 1 µM & 10 µM. From the text: (§1) page 5: Running title: PreclinicalPK -PD of antimalarials 73 to high through put form at using in- house standard assa y protocols that are described in the 74 literature. […] 81 82 83 84 85 86 87 88 89 90 91 92 93 94 95 96 97 98 5
Series [2] can be described thus: Intrinsic clearance in mouse liver microsomes. It is filed as in vitro ADME. Conditions: per mg protein. From the text:
(§2) page 5: Running title: PreclinicalPK -PD of antimalarials 73 to high through put form at using in- house standard assa y protocols that are described in the 74 literature. 75 (a)HT-Equilibrium solubilit y at pH 6.8( 1); (b)Parallel Artificial Membrane P ermeability Assa y 76 expressed in % fraction absorbed (FA) ( 2,3 ); (c)Apparent permeability from apical to […] 78 tested; (d)intrinsic clearance in mouse liver micro somes ex pressed as µ L/ min/mg protein, in 79 the presen ce of liver enzym es ( 6); (e)Mous e plasm a protein binding using rapid equilibrium […] 81 82 83 84 85 86 87 88 89 90 91 92 93 94 95 96 97 98 5

The subject of a further series is Caco-2 cells. Description: Caco-2 permeability. It is filed as in vitro ADME. Conditions: apical to basolateral.
Excerpt: as §2

Series [3] is described as follows: HT-equilibrium solubility. It counts as physicochemical. The following applies: pH 6.8, HT-equilibrium solubility.
Excerpt: as §1

Series [4] in a line: In vivo PK after single p.o. and i.v. dosing in CD-1 mice. Also noted: species or system female CD-1 mice. Conditions: CD-1 mice; for CL / Vss / t1/2 (i.v.): i.v. 5 mg/kg; for F (oral bioavailability): oral 25 mg/kg vs i.v. 5 mg/kg; for AUC0–24 / Tmax / t1/2 (oral) / Cmax: single oral dose 25 mg/kg; for Cmax: plasma. How it is done:
The Institutional Animal Care and Use Committee (IACUC) of the Novartis Institute for Tropical Diseases (NITD), registered with the Agri-Food and Veterinary authority (AVA), Government of Singapore, reviewed and approved all animal experimental protocols. […] The mice were allowed to acclimate before the initiation of the experiments. Feed and water were given ad libitum. […] The blood samples from the mice were collected at 0.02 (for i.v. only), 0.08, 0.25, 0.5, 1, 2, 4, 8, 16, and 24 h postdosing. The dose proportionality studies were conducted with KAE609. […] Additional samples were collected at 32 h and 48 h postdose for the 1- and 5-mg/kg dose groups and up to 72 h postdose for the 100-mg/kg dose group. Groups of three mice were used for each time point. Blood was centrifuged at 13,000 rpm for 7 min at 4°C, and plasma was harvested and stored at -20°C until analysis. […] After vortexing and centrifuging the mixture, the supernatant was removed and 5 μl of sample analyzed. Analyte quantitation was performed by high-performance liquid chromatography coupled with tandem mass spectrometry (LC-MS/MS). […] Instrument control and data acquisition were performed using the Applied Biosystems software Analyst 1.4.2. […] Multiple-reaction monitoring (MRM) was combined with optimized MS parameters to maximize detection specificity and sensitivity. The most intense MRM transitions [338.3/295.1 for (+)-1, 370.1/327.0 for (+)-2, 370.0/326.9 for (+)-3, 354.1/310.8 for (+)-4, 354.1/311.2 for (+)-5, 372.1/329.1 for (+)-6, 388.0/331.8 for (+)-7, 372.1/316.1 for (-)-6, and 388/332 for (-)-7] were used for quantitation. Most compounds were analyzed using electrospray ionization in the negative mode, except (+)-1, which was analyzed using positive mode. The recovery of the compounds from plasma was good and consistent across the concentration range studied. The lower limits of quantification for different compounds ranged from 1.3 to 70 ng/ml in plasma. A calibration curve was freshly prepared and analyzed with every set of study samples. Intraday variability was established with triplicate quality control samples at three concentration levels. The results were accepted if relative standard deviation was <15%. The mean values of the compound concentrations in plasma were obtained from three animals at each time point and plotted against time to generate concentration-time profiles. […] The oral bioavailability (F) was calculated as the ratio between the area under the concentration-time curve from 0 to infinity (AUC0-∞) following oral administration and the AUC0-∞ following intravenous administration corrected for dose (F = […].).

The values that follow come from article PMC4335872, “Pharmacokinetic-Pharmacodynamic Analysis of Spiroindolone Analogs and KAE609 in a Murine Malaria Model” (Antimicrobial Agents and Chemotherapy, 2015).

Structures are written as SMILES. ≈ marks a conversion by molar mass, not a printed value.

Regarding `C[C@H]1Cc2c([nH]c3cc(F)c(F)cc23)[C@@]2(N1)C(=O)Nc1ccc(Cl)cc12` [(+)-6], in the series with P. falciparum NF54, the IC50 is 0.33 ± 0.06 nM. Moreover, the “RBC to Plasma Ratio” value in series [1] amounted to 1.12. In series [2], the “Hepatic CLint in mouse liver microsomes” value was 41 µL/min/mg. Also, in the series on Caco-2 cells, the “Caco-2 Papp (A-B)” value was 5.55 10-6 cm/sec. The same molecule displayed a Solubility in series [3] of 169 µM (≈ 63.2 µg/mL). Further, in series [4], the CL was 8.5 mL/min/kg, the Vss was found to be 1.6 L/kg, the “t1/2 (i.v.)” value is on record as 2.9 h and the “F (oral bioavailability)” value is recorded as 53%. Further, in series [4], the “AUC0–24” value amounted to 26800 ng·h/mL, the Tmax was 2 h, the “t1/2 (oral)” value is on record as 3.2 h and the maximum concentration (Cmax) was found to be 3100 ng/mL.
Take `C[C@@H]1Cc2c([nH]c3cc(Cl)c(F)cc23)[C@]2(N1)C(=O)Nc1ccc(Cl)cc12` [(−)-7]: in the series with P. falciparum NF54, the “In vitro activity against P. falciparum” value was “submicromolar” and the half-maximal inhibitory concentration (IC50) is 210 ± 19 nM. For the same molecule, in series [1], the “RBC to Plasma Ratio” value was determined as 0.52. In addition, in series [2], the “Hepatic CLint in mouse liver microsomes” value worked out at 21 µL/min/mg. Besides, the “Caco-2 Papp (A-B)” value in the series on Caco-2 cells is given as 1.73 10-6 cm/sec. The molecule also registered a Solubility in series [3] of 35 µM (≈ 13.7 µg/mL). Also, in series [4], the CL is 2.6 mL/min/kg, the Vss was 1.3 L/kg, the “t1/2 (i.v.)” value was determined as 5.6 h and the “F (oral bioavailability)” value amounted to 92%. Moreover, in series [4], the “AUC0–24” value was determined as 107300 ng·h/mL, the time of peak concentration (Tmax) is given as 1 h, the “t1/2 (oral)” value was 9.1 h and the Cmax was 8300 ng/mL.
Take `C[C@H]1Cc2c([nH]c3ccc(F)cc23)[C@@]2(N1)C(=O)Nc1ccc(Cl)cc12` [(+)-4]: in the series on P. falciparum NF54, the IC50 was 5.9 ± 0.9 nM. In addition, the “RBC to Plasma Ratio” value in series [1] amounted to 0.62. Besides, the “Hepatic CLint in mouse liver microsomes” value in series [2] stood at 330 µL/min/mg. Besides, in the series on Caco-2 cells, the “Caco-2 Papp (A-B)” value was 7.66 10-6 cm/sec. In addition, the Solubility in series [3] was found to be 137 µM (≈ 48.7 µg/mL). Also, in series [4], the CL came to 24.0 mL/min/kg, the Vss amounted to 1.9 L/kg, the “t1/2 (i.v.)” value came to 4.7 h and the “F (oral bioavailability)” value stood at 26%. Also, in series [4], the “AUC0–24” value was 3900 ng·h/mL, the Tmax was 0.25 h, the “t1/2 (oral)” value was 5.6 h and the Cmax is 1000 ng/mL.
